Where two headings read alike, the source gives them in different places.
Key:
[1] = biological target: mutant cKIT (560-576 and V654A) in GIST430/654 cell line (Homo sapiens (Human), UniProt P10721, DEL560-576/V654A); assay: Cellular testing of cKIT mutant inhibitors: phospho-Y307-cKIT Luminex assay in GIST430/654 cells; assay type: cell-based; settings: read-out: GIST 430/654 IC50
How it was run: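 GIST430/654 cells carrying constitutively active cKIT (Δ560-576/V654A) were grown with 100 nM imatinib, then treated with serially diluted compound for 45 min. Lysates were captured on anti-total-cKIT Luminex beads overnight at 4 °C and probed for phospho-Y307-cKIT. IC50 was fitted from percent of 0.3% DMSO control.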

c-Kit(V654A) = c-Kit(V654A) (Homo sapiens, UniProt P10721, V654A); assay: c-Kit(V654A) assay; assay type: biochemical
How it was run: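 Radiometric filter-binding read-out: after 3% phosphoric acid stop, peptide-incorporated 33P on filtermat scintillation-counted. Enzyme: human c-Kit V654A, residues 544–end, N-terminal GST fusion.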

[2] = Table 1, cKIT autophosphorylation, compounds 45 min
[3] = Table 2, corresponding triazole derivatives

Chain of mutant cKIT (560-576 and V654A) in GIST430/654 cell line (P10721 other isoform, or with tags, fused parts or gaps V654A/del 1-25/del 560-576 limits assumed): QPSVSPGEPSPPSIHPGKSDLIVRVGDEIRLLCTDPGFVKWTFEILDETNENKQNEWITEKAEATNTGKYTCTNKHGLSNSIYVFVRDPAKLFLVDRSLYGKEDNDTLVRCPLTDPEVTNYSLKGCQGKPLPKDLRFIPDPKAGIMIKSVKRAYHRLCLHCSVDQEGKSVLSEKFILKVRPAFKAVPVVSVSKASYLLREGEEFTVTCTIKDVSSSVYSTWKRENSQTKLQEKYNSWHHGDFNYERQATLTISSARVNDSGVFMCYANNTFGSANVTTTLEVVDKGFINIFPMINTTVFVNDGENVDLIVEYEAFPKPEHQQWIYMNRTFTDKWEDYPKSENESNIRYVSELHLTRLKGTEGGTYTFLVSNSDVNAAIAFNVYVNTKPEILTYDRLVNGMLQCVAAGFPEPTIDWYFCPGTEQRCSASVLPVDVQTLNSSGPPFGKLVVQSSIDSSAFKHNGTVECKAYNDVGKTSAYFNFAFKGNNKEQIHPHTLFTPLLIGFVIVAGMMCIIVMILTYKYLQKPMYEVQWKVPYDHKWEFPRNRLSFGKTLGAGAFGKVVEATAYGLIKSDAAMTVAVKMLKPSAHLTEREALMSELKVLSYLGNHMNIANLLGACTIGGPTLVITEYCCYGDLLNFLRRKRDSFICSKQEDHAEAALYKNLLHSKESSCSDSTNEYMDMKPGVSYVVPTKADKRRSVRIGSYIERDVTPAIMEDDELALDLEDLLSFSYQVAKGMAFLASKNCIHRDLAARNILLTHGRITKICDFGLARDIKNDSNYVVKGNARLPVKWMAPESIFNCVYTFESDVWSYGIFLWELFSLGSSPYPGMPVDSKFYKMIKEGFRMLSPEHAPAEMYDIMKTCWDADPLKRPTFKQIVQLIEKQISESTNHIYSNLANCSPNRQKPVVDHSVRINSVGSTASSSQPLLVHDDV

Row | IC50 [1, 2] | IC50 (c-Kit(V654A); Table 1, 200 μM ATP) | IC50 [1, 3] | IC50 (c-Kit(V654A); [3]) | Structure (SMILES)
1 | 110 nM | 0.89 nM |  |  | COCCOc1cc2[nH]nc(-c3cc(-c4ccc(C(=O)N5CC[C@@H]5CS(C)(=O)=O)cc4)no3)c2cc1F [A154, 5-fluoro-3-(3-{4-[(2R)-2-(methanesulfonylmethyl)azetidine-1-carbonyl]phenyl}-1,2-oxazol-5-yl)-6-(2-methoxyethoxy)-1H-indazole]
2 | 140 nM | 1.2 nM |  |  | COCCOc1cc2[nH]nc(-c3cc(-c4ccc(C(=O)N5CCOC[C@H]5CO)cc4)no3)c2cc1F [A105, [(3R)-4-(4-{5-[5-fluoro-6-(2-methoxyethoxy)-1H-indazol-3-yl]-1,2-oxazol-3-yl}benzoyl)morpholin-3-yl]methanol]
3 | 290 nM | 5.7 nM |  |  | COCCOc1cc2[nH]nc(-c3cc(-c4ccc(C(=O)N5CCC[C@H]5CO)nc4)no3)c2cc1F [A63, (5-{5-[5-fluoro-6-(2-methoxy-ethoxy)-1H-indazol-3-yl]-isoxazol-3-yl}-pyridin-2-yl)-((S)-2-hydroxymethyl-pyrrolidin-1-yl)-methanone]
4 | 160 nM | 0.89 nM |  |  | COCCOc1cc2[nH]nc(-c3cc(-c4ccc(C(=O)N5CC(N6CCN(C)CC6)C5)cc4)no3)c2cc1Cl [A65, (4-{5-[5-chloro-6-(2-methoxy-ethoxy)-1H-indazol-3-yl]-isoxazol-3-yl}-phenyl)-[3-(4-methyl-piperazin-1-yl)-azetidin-1-yl]-methanone]
5 | 15 nM | 1.4 nM |  |  | COCCOc1cc2[nH]nc(-c3cc(-c4ccc(C(=O)N5CC(N6CCOCC6)C5)cc4)no3)c2cc1F [A53, 5-fluoro-6-(2-methoxyethoxy)-3-(3-{4-[3-(morpholin-4-yl)azetidine-1-carbonyl]phenyl}-1,2-oxazol-5-yl)-1H-indazole]
6 | 68 nM | 1.2 nM |  |  | COCCOc1cc2[nH]nc(-c3cc(-c4ccc(N5CCOCC5=O)cc4)no3)c2cc1F [A139, 4-(4-{5-[5-fluoro-6-(2-methoxyethoxy)-1H-indazol-3-yl]-1,2-oxazol-3-yl}phenyl)morpholin-3-one]
7 | 230 nM | 1.9 nM |  |  | COCCOc1cc2[nH]nc(-c3cc(-c4ccc(N5CC[C@H]6[C@@H]5CCN6C)cc4)no3)c2cc1F (relative stereo) [A125, 3-(3-{4-[(cis)-4-methyl-octahydropyrrolo[3,2-b]pyrrol-1-yl]phenyl}-1,2-oxazol-5-yl)-5-fluoro-6-(2-methoxyethoxy)-1H-indazole]
8 | 52 nM | 0.78 nM |  |  | COCCOc1cc2[nH]nc(-c3cc(-c4ccc(C(=O)N5CC[C@@H]5C(C)(C)O)cc4)no3)c2cc1F [A58, 2-[(2R)-1-(4-{5-[5-fluoro-6-(2-methoxyethoxy)-1H-indazol-3-yl]-1,2-oxazol-3-yl}benzoyl)azetidin-2-yl]propan-2-ol]
9 | 710 nM | 14 nM |  |  | COCCOc1cc2[nH]nc(-c3cc(-c4ccc(C(=O)N5CC(c6nncn6CCOC)C5)cc4)no3)c2cc1F [A195, 5-fluoro-6-(2-methoxyethoxy)-3-[3-(4-{3-[4-(2-methoxyethyl)-4H-1,2,4-triazol-3-yl]azetidine-1-carbonyl}phenyl)-1,2-oxazol-5-yl]-1H-indazole]
10 | 220 nM | 7.7 nM |  |  | COCCOc1cc2[nH]nc(-c3cc(-c4ccc(N5CCOCC5)nc4)no3)c2cc1F [A141, 5-fluoro-6-(2-methoxyethoxy)-3-{3-[6-(morpholin-4-yl)pyridin-3-yl]-1,2-oxazol-5-yl}-1H-indazole]
11 | 140 nM | 0.96 nM |  |  | COCCOc1cc2[nH]nc(-c3cc(-c4ccc(C(=O)N5CC(N6CCC(O)CC6)C5)cc4)no3)c2cc1F [A103, 1-[1-(4-{5-[5-fluoro-6-(2-methoxyethoxy)-1H-indazol-3-yl]-1,2-oxazol-3-yl}benzoyl)azetidin-3-yl]piperidin-4-ol]
12 | 30 nM | 1.1 nM |  |  | COCCOc1cc2[nH]nc(-c3cc(-c4ccc(C(=O)N5CC(c6ccnc(C)n6)C5)cc4)no3)c2cc1F [A173, 5-fluoro-6-(2-methoxyethoxy)-3-(3-{4-[3-(2-methylpyrimidin-4-yl)azetidine-1-carbonyl]phenyl}-1,2-oxazol-5-yl)-1H-indazole]
13 | 560 nM | 1.4 nM |  |  | COCCOc1cc2[nH]nc(-c3cc(-c4ccc(C(=O)N5C[C@H]6CC(=O)N[C@H]6C5)cc4)no3)c2cc1F (relative stereo) [A203, (cis)-5-(4-{5-[5-fluoro-6-(2-methoxyethoxy)-1H-indazol-3-yl]-1,2-oxazol-3-yl}benzoyl)-octahydropyrrolo[2,3-c]pyrrol-2-one]
14 |  |  | 790 nM | 7.8 nM | COCCOc1cc2[nH]nc(-c3cn(-c4ccc(C(=O)N5CCN(C6COC6)CC5)cc4)nn3)c2cc1F [reference compound]
15 | 340 nM | 3.1 nM |  |  | COc1cc2[nH]nc(-c3cc(-c4ccc(C(=O)N5CCNCC5)cc4)no3)c2cc1F [A225, {4-[5-(5-fluoro-6-methoxy-1H-indazol-3-yl)-isoxazol-3-yl]-phenyl}-piperazin-1-yl-methanone]
16 | 49 nM | 3.3 nM |  |  | COCCOc1cc2[nH]nc(-c3cc(-c4ccc(C(=O)N5CC(N6CCOCC6)C5)c(F)c4)no3)c2cc1F [A168, (2-fluoro-4-{5-[5-fluoro-6-(2-methoxy-ethoxy)-1H-indazol-3-yl]-isoxazol-3-yl}-phenyl)-(3-morpholin-4-yl-azetidin-1-yl)-methanone]
17 |  |  | 230 nM | 6.9 nM | COCCOc1cc2[nH]nc(-c3cn(-c4ccc(C(=O)N5CCOC[C@@H]5C)cc4)nn3)c2cc1F [reference compound]
18 | 46 nM | 0.69 nM |  |  | COCCOc1cc2[nH]nc(-c3cc(-c4ccc(C(=O)N5CC(c6ccccn6)C5)cc4)no3)c2cc1F [A149, 5-fluoro-6-(2-methoxyethoxy)-3-(3-{4-[3-(pyridin-2-yl)azetidine-1-carbonyl]phenyl}-1,2-oxazol-5-yl)-1H-indazole]
19 | 48 nM | 1.1 nM |  |  | COCCOc1cc2[nH]nc(-c3cc(-c4ccc(C(=O)N5CCN([C@H]6CCOC6)CC5)cc4)no3)c2cc1F [A186, 5-fluoro-6-(2-methoxyethoxy)-3-[3-(4-{4-[(3S)-oxolan-3-yl]piperazine-1-carbonyl}phenyl)-1,2-oxazol-5-yl]-1H-indazole]
20 |  |  | 140 nM | 2.3 nM | COCCOc1cc2[nH]nc(-c3cn(-c4ccc(C(=O)N5Cc6ccncc6C5)cc4)nn3)c2cc1F [reference compound]
21 | 18 nM | 0.55 nM |  |  | COCCOc1cc2[nH]nc(-c3cc(-c4ccc(C(=O)N5Cc6ccncc6C5)cc4)no3)c2cc1F [A183, 5-fluoro-6-(2-methoxyethoxy)-3-[3-(4-{1H,2H,3H-pyrrolo[3,4-c]pyridine-2-carbonyl}phenyl)-1,2-oxazol-5-yl]-1H-indazole]
22 | 33 nM | 0.51 nM |  |  | COCCOc1cc2[nH]nc(-c3cc(-c4ccc(C(=O)N5CC[C@H]5C(C)(C)O)cc4)no3)c2cc1F [A59, 2-[(2S)-1-(4-{5-[5-fluoro-6-(2-methoxyethoxy)-1H-indazol-3-yl]-1,2-oxazol-3-yl}benzoyl)azetidin-2-yl]propan-2-ol]
23 | 58 nM | 1.8 nM |  |  | COCCOc1cc2[nH]nc(-c3cc(-c4ccc(C(=O)N5CCN(C6COC6)C[C@@H]5C)cc4)no3)c2cc1F [A191, 5-fluoro-6-(2-methoxyethoxy)-3-(3-{4-[(2S)-2-methyl-4-(oxetan-3-yl)piperazine-1-carbonyl]phenyl}-1,2-oxazol-5-yl)-1H-indazole]

Row | Structure (SMILES) | IC50 [1, 2] | IC50 (c-Kit(V654A); Table 1, 200 μM ATP) | IC50 [1, 3] | IC50 (c-Kit(V654A); [3])
24 | COCCOc1cc2[nH]nc(-c3cc(-c4ccc(C(=O)N5CC6CC(C5)O6)cc4)no3)c2cc1F [A161, 5-fluoro-6-(2-methoxyethoxy)-3-[3-(4-{6-oxa-3-azabicyclo[3.1.1]heptane-3-carbonyl}phenyl)-1,2-oxazol-5-yl]-1H-indazole] | 40 nM | 0.45 nM |  | 
